# Values joined by “and” are separate entries in the source; they are usually repeats but may differ in a detail not shown here. Equal values may be shown once.
# Target: T1, human TAS2R14 (Homo sapiens, UniProt Q9NYV8)
# T1 construct: expressed in transfected cells; host or cells: HEK293T-Gα16gust44
# T1 sequence (Q9NYV8 1-317): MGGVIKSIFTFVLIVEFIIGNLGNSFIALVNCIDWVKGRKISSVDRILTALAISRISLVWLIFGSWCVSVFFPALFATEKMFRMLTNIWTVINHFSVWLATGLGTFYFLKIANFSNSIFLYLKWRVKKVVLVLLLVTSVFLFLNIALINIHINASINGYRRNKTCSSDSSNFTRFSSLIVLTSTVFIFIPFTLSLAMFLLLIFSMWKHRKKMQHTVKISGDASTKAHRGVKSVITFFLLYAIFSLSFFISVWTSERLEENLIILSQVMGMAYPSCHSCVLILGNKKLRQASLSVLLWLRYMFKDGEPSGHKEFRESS
# Assay: Calcium imaging assay (FLIPR), HEK293T-Gα16gust44 cells transfected with human TAS2R14
# Format: cell-based
# Conditions: for RLU: TAS2R14 trace
# Summary of the method: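 Bile acids from DMSO stocks are applied to dye-loaded cells one day after transient receptor transfection, and calcium-dependent fluorescence is recorded. Maximum signal is standardized to basal and normalized to buffer-only wells, with empty-vector signal subtracted.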
smiles,measurement,setting,value
"C[C@H](CCC(=O)NCCS(=O)(=O)O)[C@H]1CC[C@H]2[C@@H]3CC[C@@H]4C[C@H](O)CC[C@]4(C)[C@H]3CC[C@]12C [Taurolithocholic Acid, taurolithocholic acid]",Efficacy = maximal amplitude (ΔF/F),"TAS2R14, bile acids, mean",0.07188
same,"Efficacy (maximal amplitude ΔF/F), individual data points","TAS2R14, bile acids, single replicates, listed as TLCA",0.06981 and 0.08988 and 0.05106
same,RLU,Time (s) 0,0 RLU
same,RLU,Time (s) 2 (Taurocholic Acid 2.016),5.076 RLU
same,RLU,Time (s) 4 (Taurocholic Acid 4.016),-5.108 RLU
same,RLU,Time (s) 6 (Taurocholic Acid 6.016),-10.1397 RLU
same,RLU,Time (s) 8 (Taurocholic Acid 8.016),-25.9369 RLU
same,RLU,Time (s) 12 (Taurocholic Acid 12.016),-47.2431 RLU
same,RLU,Time (s) 14 (Taurocholic Acid 14.016),-37.8259 RLU
same,RLU,Time (s) 16 (Taurocholic Acid 16.016),-67.1139 RLU
same,RLU,Time (s) 18 (Taurocholic Acid 18.016),-63.8827 RLU
same,RLU,Time (s) 18.797 (Chenodeoxycholic Acid 18.765),-68.311 RLU
same,RLU,Time (s) 20.797 (Chenodeoxycholic Acid 20.781),-66.196 RLU
same,RLU,Time (s) 22.797 (Chenodeoxycholic Acid 22.781),-50.0226 RLU
same,RLU,Time (s) 24.797 (Chenodeoxycholic Acid 24.781),-48.2767 RLU
same,RLU,Time (s) 26.797 (Chenodeoxycholic Acid 26.781),-41.6616 RLU
same,RLU,Time (s) 28.797 (Chenodeoxycholic Acid 28.781),-45.6719 RLU
same,RLU,Time (s) 30.797 (Chenodeoxycholic Acid 30.781),-13.6241 RLU
same,RLU,Time (s) 32.797 (Chenodeoxycholic Acid 32.781),14.5625 RLU
same,RLU,Time (s) 34.797 (Chenodeoxycholic Acid 34.781),34.5332 RLU
same,RLU,Time (s) 36.797 (Chenodeoxycholic Acid 36.781),37.8124 RLU
same,RLU,Time (s) 38.797 (Chenodeoxycholic Acid 38.781),50.8625 RLU
same,RLU,Time (s) 40.797 (Chenodeoxycholic Acid 40.781),58.2474 RLU
same,RLU,Time (s) 42.797 (Chenodeoxycholic Acid 42.781),67.9279 RLU
same,RLU,Time (s) 44.797 (Chenodeoxycholic Acid 44.781),76.8016 RLU
same,RLU,Time (s) 46.797 (Chenodeoxycholic Acid 46.781),99.8168 RLU
same,RLU,Time (s) 48.797 (Chenodeoxycholic Acid 48.781),113.593 RLU
same,RLU,Time (s) 50.797 (Chenodeoxycholic Acid 50.781),125.702 RLU
same,RLU,Time (s) 52.797 (Chenodeoxycholic Acid 52.781),143.488 RLU
same,RLU,Time (s) 54.797 (Chenodeoxycholic Acid 54.781),148.335 RLU
same,RLU,Time (s) 56.797 (Chenodeoxycholic Acid 56.781),163.155 RLU
same,RLU,Time (s) 58.797 (Chenodeoxycholic Acid 58.781),176.389 RLU
same,RLU,Time (s) 60.797 (Chenodeoxycholic Acid 60.781),197.723 RLU
same,RLU,Time (s) 62.797 (Chenodeoxycholic Acid 62.781),213.291 RLU
same,RLU,Time (s) 64.797 (Chenodeoxycholic Acid 64.781),213.968 RLU
same,RLU,Time (s) 66.797 (Chenodeoxycholic Acid 66.781),225.512 RLU
same,RLU,Time (s) 68.797 (Chenodeoxycholic Acid 68.781),237.861 RLU
same,RLU,Time (s) 70.797 (Chenodeoxycholic Acid 70.781),234.615 RLU
same,RLU,Time (s) 72.797 (Chenodeoxycholic Acid 72.781),231.58 RLU
same,RLU,Time (s) 74.797 (Chenodeoxycholic Acid 74.781),268.946 RLU
same,RLU,Time (s) 76.797 (Chenodeoxycholic Acid 76.781),267.933 RLU
same,RLU,Time (s) 78.797 (Chenodeoxycholic Acid 78.781),291.733 RLU
same,RLU,Time (s) 80.797 (Chenodeoxycholic Acid 80.781),290.533 RLU
same,RLU,Time (s) 82.797 (Chenodeoxycholic Acid 82.781),307.412 RLU
same,RLU,Time (s) 84.797 (Chenodeoxycholic Acid 84.781),297.633 RLU
same,RLU,Time (s) 86.797 (Chenodeoxycholic Acid 86.781),303.737 RLU
same,RLU,Time (s) 88.797 (Chenodeoxycholic Acid 88.781),299.661 RLU
same,RLU,Time (s) 90.797 (Chenodeoxycholic Acid 90.781),303.944 RLU
same,RLU,Time (s) 92.797 (Chenodeoxycholic Acid 92.781),328.349 RLU
same,RLU,Time (s) 94.797 (Chenodeoxycholic Acid 94.781),307.307 RLU
same,RLU,Time (s) 96.797 (Chenodeoxycholic Acid 96.781),314.559 RLU
same,RLU,Time (s) 98.797 (Chenodeoxycholic Acid 98.781),326.967 RLU
same,RLU,Time (s) 100.797 (Chenodeoxycholic Acid 100.781),302.894 RLU
same,RLU,Time (s) 102.797 (Chenodeoxycholic Acid 102.781),324.498 RLU
same,RLU,Time (s) 104.797 (Chenodeoxycholic Acid 104.781),347.898 RLU
same,RLU,Time (s) 106.797 (Chenodeoxycholic Acid 106.781),338.946 RLU
same,RLU,Time (s) 108.797 (Chenodeoxycholic Acid 108.781),361.614 RLU
same,RLU,Time (s) 110.797 (Chenodeoxycholic Acid 110.781),335.334 RLU
same,RLU,Time (s) 112.797 (Chenodeoxycholic Acid 112.781),367.933 RLU
same,RLU,Time (s) 114.797 (Chenodeoxycholic Acid 114.781),388.996 RLU
same,RLU,Time (s) 116.797 (Chenodeoxycholic Acid 116.781),373.414 RLU
same,RLU,Time (s) 118.797 (Chenodeoxycholic Acid 118.781),374.133 RLU
same,RLU,Time (s) 120.797 (Chenodeoxycholic Acid 120.781),378.298 RLU
same,RLU,Time (s) 122.797 (Chenodeoxycholic Acid 122.781),394.755 RLU
same,RLU,Time (s) 124.797 (Chenodeoxycholic Acid 124.781),385.131 RLU
same,RLU,Time (s) 126.797 (Chenodeoxycholic Acid 126.781),394.257 RLU
same,RLU,Time (s) 128.797 (Chenodeoxycholic Acid 128.781),394.724 RLU
same,RLU,Time (s) 130.797 (Chenodeoxycholic Acid 130.781),379.935 RLU
same,RLU,Time (s) 132.797 (Chenodeoxycholic Acid 132.781),394.817 RLU
same,RLU,Time (s) 134.797 (Chenodeoxycholic Acid 134.781),375.334 RLU
same,RLU,Time (s) 136.797 (Chenodeoxycholic Acid 136.781),397.788 RLU
same,RLU,"Time (s) 137.562 (Taurocholic Acid 137.563, Chenodeoxycholic Acid 137.546)",382.953 RLU
same,RLU,"Time (s) 143.578 (Taurocholic Acid 143.563, Chenodeoxycholic Acid 143.546)",394.002 RLU
same,RLU,"Time (s) 149.578 (Taurocholic Acid 149.563, Chenodeoxycholic Acid 149.546)",363.524 RLU
same,RLU,"Time (s) 155.578 (Taurocholic Acid 155.563, Chenodeoxycholic Acid 155.546)",370.686 RLU
same,RLU,"Time (s) 161.578 (Taurocholic Acid 161.563, Chenodeoxycholic Acid 161.546)",390.532 RLU
same,RLU,"Time (s) 167.578 (Taurocholic Acid 167.563, Chenodeoxycholic Acid 167.546)",378.911 RLU
same,RLU,"Time (s) 173.578 (Taurocholic Acid 173.563, Chenodeoxycholic Acid 173.546)",356.99 RLU
same,RLU,"Time (s) 179.578 (Taurocholic Acid 179.563, Chenodeoxycholic Acid 179.546)",351.344 RLU
same,RLU,"Time (s) 191.578 (Taurocholic Acid 191.563, Chenodeoxycholic Acid 191.546)",317.716 RLU
same,RLU,"Time (s) 197.578 (Taurocholic Acid 197.563, Chenodeoxycholic Acid 197.546)",291.899 RLU
same,RLU,"Time (s) 209.578 (Taurocholic Acid 209.563, Chenodeoxycholic Acid 209.546)",252.636 RLU
same,RLU,"Time (s) 221.578 (Taurocholic Acid 221.563, Chenodeoxycholic Acid 221.546)",195.665 RLU
same,RLU,"Time (s) 233.578 (Taurocholic Acid 233.563, Chenodeoxycholic Acid 233.546)",155.879 RLU
same,RLU,"Time (s) 239.578 (Taurocholic Acid 239.563, Chenodeoxycholic Acid 239.546)",121.06 RLU
same,RLU,"Time (s) 245.578 (Taurocholic Acid 245.563, Chenodeoxycholic Acid 245.546)",124.983 RLU
same,RLU,"Time (s) 293.578 (Taurocholic Acid 293.563, Chenodeoxycholic Acid 293.546)",26.9674 RLU
same,RLU,"Time (s) 299.578 (Taurocholic Acid 299.563, Chenodeoxycholic Acid 299.546)",2.882 RLU
same,RLU,"Time (s) 305.578 (Taurocholic Acid 305.563, Chenodeoxycholic Acid 305.546)",10.8603 RLU
same,RLU,"Time (s) 311.578 (Taurocholic Acid 311.563, Chenodeoxycholic Acid 311.546)",-14.8461 RLU
same,RLU,"Time (s) 317.578 (Taurocholic Acid 317.563, Chenodeoxycholic Acid 317.546)",-4.053 RLU
same,RLU,"Time (s) 323.578 (Taurocholic Acid 323.563, Chenodeoxycholic Acid 323.546)",-64.2935 RLU
same,RLU,"Time (s) 329.578 (Taurocholic Acid 329.563, Chenodeoxycholic Acid 329.546)",-47.603 RLU
same,RLU,"Time (s) 335.578 (Taurocholic Acid 335.563, Chenodeoxycholic Acid 335.546)",-52.8312 RLU
same,RLU,"Time (s) 341.578 (Taurocholic Acid 341.563, Chenodeoxycholic Acid 341.546)",-81.682 RLU
same,RLU,"Time (s) 347.578 (Taurocholic Acid 347.563, Chenodeoxycholic Acid 347.546)",-84.764 RLU
same,RLU,"Time (s) 353.578 (Taurocholic Acid 353.563, Chenodeoxycholic Acid 353.546)",-78.8648 RLU
same,RLU,"Time (s) 359.578 (Taurocholic Acid 359.563, Chenodeoxycholic Acid 359.546)",-73.3268 RLU
same,Activation threshold concentration TAS2R14,lowest concentration with significantly increased fluorescence vs empty vector (p < 0.01),0.3 µM

# Source: article PMC10247784, “Physiological activation of human and mouse bitter taste receptors by bile acids” (Communications Biology, 2023)
